Results on one sequence are retold here after patent publication US7582609B2, “Method for the treatment of skin fibrosis and suitable compositions for such treatment” (Digna Biotech, S.L., priority 2006, dated 2009).

This series has as its system bleomycin-induced skin sclerosis. The note with it: mouse, in vivo. On the procedure:
Two emulsions or creams were prepared, an emulsion containing peptide P144 and a control emulsion with the vehicle for administration but without P144.
The control emulsion with the vehicle for administration was prepared by a procedure that starts with mixing of the components that are shown below in Table 2:
Next, this mixture was heated at 70° C. and was emulsified with 44.4 g of distilled water (also at 70° C.).
The emulsion containing the P144 was prepared as previously, except that the 44.4 g of water was replaced with a mixture of 44.28 g of water plus 0.010 g of P144 previously dissolved in 100 μl of dimethylsulphoxide.
The test was carried out using 6-week-old female C3H mice, supplied by Harlan SL (Spain). Development of skin sclerosis in the mice was induced by the administration of bleomycin (Sigma, Spain) dissolved in PBS at a concentration of 100 μg/ml and sterilized by filtration. The mice were injected with the bleomycin subcutaneously in the skin of the back, previously shaved, at daily doses of 100 μl of the solution in PBS injected with size 27 needles. […]
The thickness of the dermis was measured on the digitized images of the sections stained with haematoxylin and eosin, and then the percentage variation in thickness of the dermis was calculated relative to the mean of the values obtained for the mice treated with PBS, adjusted to 100%. […]

Ends that are not written are not given here.

Turning to TSLDASIIWAMMQN [Peptide P144], the “morphological changes in the epidermis” value is “No changes were observed” and the “signs of systemic toxicity” value is “without signs of systemic toxicity”.
